Values of other authors, collected in US20120177693A1, “DEEP LUNG PULMONARY DELIVERY OF TREPROSTINIL” (Aradigm Corporation, priority 2008, published 2012).

Details: inhaled; Voswinckel et al.; cited from earlier work

CC#CCC(C)[C@H](O)/C=C/[C@@H]1[C@H]2C/C(=C/CCCC(=O)O)C[C@H]2C[C@H]1O (some centres unmarked) [iloprost]
Plasma half-life: about 8 min
Time of peak plasma levels: immediately after the completion of the inhalation session
